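Results reflect a 48-hour exposure of cells in 96-well plates to compound at five concentrations. GI50: concentration for 50% inhibition of growth. TGI is the concentration that stops growth completely.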

The values that follow come from PubChem BioAssay (NCI).

Test systems include ACHN renal; BT-549 breast; CAKI-1 renal; HCC-2998 colon; HCT-15 colon; IGROV1 ovarian; LOX IMVI melanoma; OVCAR-4 ovarian; RXF 393 renal; SK-MEL-5 melanoma.
Holding throughout (test): growth of human tumour cells (NCI), 48 h

As for `O=C(CCCN1CCOCC1)Nc1ccc(Cn2nnc3c2C(=O)c2nnn(Cc4ccc(NC(=O)CCCN5CCOCC5)cc4)c2C3=O)cc1`, the GI50 in the test on ACHN renal was more than 100 µM; in the test on BT-549 breast, 4.68 µM; in the test with CAKI-1 renal it was more than 100 µM; in the test on HCC-2998 colon it was 2.62 µM; with HCT-15 colon, more than 100 µM; with IGROV1 ovarian it was 1.95 µM. The GI50 with LOX IMVI melanoma was 2.01 µM; in the test on OVCAR-4 ovarian it was 1.25 µM; in the test with RXF 393 renal it was 4.33 µM; in the test on SK-MEL-5 melanoma, 1.52 µM. Also, the TGI in the test on ACHN renal is more than 100 µM; in the test with BT-549 breast it was 18.4 µM; with CAKI-1 renal, more than 100 µM; with HCC-2998 colon, 5.79 µM; in the test with HCT-15 colon, more than 100 µM; in the test with IGROV1 ovarian, 4.62 µM. Also, the TGI in the test on LOX IMVI melanoma is 6.3 µM; in the test with OVCAR-4 ovarian, 2.51 µM; with RXF 393 renal it was 38.9 µM; in the test on SK-MEL-5 melanoma it was 3.55 µM.
As to `CCN1C(NN)=NS(=O)(=O)c2ccccc21`, the TGI in the test with ACHN renal, in the test on BT-549 breast, with CAKI-1 renal, in the test on HCC-2998 colon, in the test on HCT-15 colon and in the test on IGROV1 ovarian was more than 100 µM in each case. Further, the TGI in the test with LOX IMVI melanoma, with OVCAR-4 ovarian, in the test with RXF 393 renal and in the test with SK-MEL-5 melanoma was more than 100 µM throughout.
With `CO/N=C(\C)c1cccc(Nc2cc(-c3ccccc3)nc3c(O)cccc23)c1`, the GI50 in the test with ACHN renal was 6.04 µM; with BT-549 breast, 15.1 µM; with CAKI-1 renal, 2.78 µM; in the test on HCC-2998 colon, 2.88 µM; with HCT-15 colon it was 3.38 µM; with IGROV1 ovarian, 2.46 µM. In addition, the GI50 is 8.56 µM with LOX IMVI melanoma, 61.3 µM in the test on OVCAR-4 ovarian, 3.69 µM in the test on RXF 393 renal and 16.6 µM with SK-MEL-5 melanoma. In addition, the TGI in the test on ACHN renal is 28.1 µM; with BT-549 breast, 55.1 µM; in the test on CAKI-1 renal it was 13.7 µM; in the test with HCC-2998 colon, 12.6 µM; with HCT-15 colon, 16.9 µM; in the test with IGROV1 ovarian, 8.29 µM. Also, the TGI in the test on LOX IMVI melanoma is 24.3 µM; with OVCAR-4 ovarian, more than 100 µM; in the test on RXF 393 renal, 14.9 µM; with SK-MEL-5 melanoma, 39.2 µM.
`O=C(CF)N(O)c1ccc(/C=C/c2ccccc2)cc1`: the GI50 is 0.736 µM in the test with ACHN renal; 4.37 µM in the test on BT-549 breast; 0.609 µM with CAKI-1 renal; 1.64 µM in the test on HCC-2998 colon; 13.3 µM in the test with HCT-15 colon; 2.53 µM in the test on IGROV1 ovarian. Also, the GI50 in the test on LOX IMVI melanoma was 2.53 µM; in the test with OVCAR-4 ovarian, 5.49 µM; in the test on RXF 393 renal it was 3.13 µM; in the test with SK-MEL-5 melanoma, 14.4 µM. Also, the TGI is 30 µM in the test on ACHN renal; more than 100 µM with BT-549 breast; 2.85 µM in the test with CAKI-1 renal; 7.69 µM in the test on HCC-2998 colon; more than 100 µM in the test on HCT-15 colon; 13 µM with IGROV1 ovarian. For the same molecule, the TGI was more than 100 µM in the test on LOX IMVI melanoma, more than 66.9 µM with OVCAR-4 ovarian, 25.1 µM in the test on RXF 393 renal and more than 100 µM with SK-MEL-5 melanoma.
In the case of `C/C(=C\C1=C(Cl)C(=O)c2ccccc2C1=O)C(=O)O`, the GI50 with ACHN renal is 18.5 µM; with BT-549 breast, 14.2 µM; in the test on CAKI-1 renal, 22.1 µM; in the test on HCC-2998 colon, 18.9 µM; in the test with HCT-15 colon, 18.2 µM; in the test on IGROV1 ovarian it was 15.1 µM. Also, the GI50 with LOX IMVI melanoma was 17.6 µM; in the test on OVCAR-4 ovarian, 19.9 µM; in the test with RXF 393 renal it was 18.3 µM; in the test on SK-MEL-5 melanoma, 17.5 µM. Further, the TGI in the test with ACHN renal came out at 32.7 µM; in the test with BT-549 breast it was 27.5 µM; in the test with CAKI-1 renal it was 36.6 µM; with HCC-2998 colon, 33.3 µM; in the test on HCT-15 colon, 36.5 µM; with IGROV1 ovarian, 28.6 µM. Also, the TGI in the test on LOX IMVI melanoma is 38.6 µM; in the test with OVCAR-4 ovarian, 36.3 µM; with RXF 393 renal it was 33.1 µM; in the test with SK-MEL-5 melanoma, 31.3 µM.
Consider `O=P(NC12CC3CC(CC(C3)C1)C2)(N1CC1)N1CC1`, for which the TGI in the test on ACHN renal, with BT-549 breast, in the test on CAKI-1 renal, in the test on HCC-2998 colon, in the test with HCT-15 colon and in the test on IGROV1 ovarian was more than 100 µM each time. The TGI is more than 100 µM in the test with LOX IMVI melanoma, more than 100 µM in the test on OVCAR-4 ovarian, 74.3 µM in the test with RXF 393 renal and more than 100 µM with SK-MEL-5 melanoma.
`CC/C=C\C/C=C\C[C@H](O)C/C=C1/C(=O)C=C[C@@H]1C/C=C\CCCC(=O)O`: the GI50 was 4.84 µM with ACHN renal; 2.96 µM in the test on BT-549 breast; 6.56 µM in the test with CAKI-1 renal; 2.21 µM with HCC-2998 colon; 3.47 µM in the test with HCT-15 colon; 6.78 µM with IGROV1 ovarian. Moreover, the GI50 in the test with LOX IMVI melanoma is 1.74 µM; in the test on OVCAR-4 ovarian it was 4.15 µM; in the test with RXF 393 renal it was 2.94 µM; in the test with SK-MEL-5 melanoma, 2.42 µM. Further, the TGI came to 18.5 µM with ACHN renal; 9.1 µM in the test with BT-549 breast; 21.4 µM in the test on CAKI-1 renal; 4.28 µM with HCC-2998 colon; 15.6 µM in the test with HCT-15 colon; 25.9 µM in the test with IGROV1 ovarian. Besides, the TGI with LOX IMVI melanoma worked out at 3.74 µM; in the test on OVCAR-4 ovarian, 20 µM; in the test on RXF 393 renal, 8.71 µM; in the test with SK-MEL-5 melanoma it was 5.98 µM.
Take `CN(C)c1ccc(/C=C(\C#N)c2nc3ccccc3n2C)cc1`: the GI50 was 11.6 µM in the test with ACHN renal; 3.4 µM with BT-549 breast; 5.16 µM in the test on CAKI-1 renal; 4.43 µM in the test on HCC-2998 colon; 1.29 µM in the test on HCT-15 colon; 5.13 µM in the test with IGROV1 ovarian. The GI50 was 5.68 µM in the test on LOX IMVI melanoma, 4.22 µM in the test on OVCAR-4 ovarian, 2.77 µM in the test on RXF 393 renal and 1.92 µM in the test with SK-MEL-5 melanoma. The TGI in the test on ACHN renal was more than 100 µM; in the test on BT-549 breast it was 31.2 µM; with CAKI-1 renal, more than 90.6 µM; with HCC-2998 colon, 27.7 µM; with HCT-15 colon, more than 87.6 µM; in the test on IGROV1 ovarian it was more than 100 µM. Further, the TGI with LOX IMVI melanoma was more than 62.2 µM; in the test with OVCAR-4 ovarian, more than 21.9 µM; in the test on RXF 393 renal, more than 24.8 µM; in the test on SK-MEL-5 melanoma it was 13.6 µM.
